From publication PMC10515631, “Mapping the Initial Stages of a Protective Pathway that Enhances Catalytic Turnover by a Lytic Polysaccharide Monooxygenase” (Journal of the American Chemical Society, 2023) come the findings set out here.

Common to all, as to assay: stopped-flow UV-vis
Common to all, as to type: biochemical
Conditions in all cases: oxidant reacting with Cu(I) enzyme, no polysaccharide substrate; 100 uM enzyme, 500 uM oxidant

The target of one test is T1, TaAA9 (Thermoascus aurantiacus, UniProt G3XAP7).
T1 construct: gene LPMO9A; mature secreted AA9 LPMO, Cu(I) form; host and construct only in supplement

In another test the target is T2, CvAA9 (Achaetomiella virescens, UniProt A0A223GEC9).
T2 construct: gene AA9A; mature secreted AA9 LPMO, Cu(I) form; host and construct only in supplement

Another test concerns the target T3, LsAA9 (Panus similis, UniProt A0A0S2GKZ1).
T3 construct: gene LPMO9A; mature secreted AA9 LPMO, Cu(I) form; expressed in Escherichia coli (fungal host also compared); details in supplement
T3 sequence (A0A0S2GKZ1 20-254): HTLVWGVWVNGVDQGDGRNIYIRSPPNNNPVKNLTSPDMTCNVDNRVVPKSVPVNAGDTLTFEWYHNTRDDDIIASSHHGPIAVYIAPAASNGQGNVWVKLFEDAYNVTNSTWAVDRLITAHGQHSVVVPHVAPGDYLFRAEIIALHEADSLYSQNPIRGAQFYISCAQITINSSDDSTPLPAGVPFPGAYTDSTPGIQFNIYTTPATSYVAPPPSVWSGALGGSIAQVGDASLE

T2 sequence (A0A223GEC9 23-274): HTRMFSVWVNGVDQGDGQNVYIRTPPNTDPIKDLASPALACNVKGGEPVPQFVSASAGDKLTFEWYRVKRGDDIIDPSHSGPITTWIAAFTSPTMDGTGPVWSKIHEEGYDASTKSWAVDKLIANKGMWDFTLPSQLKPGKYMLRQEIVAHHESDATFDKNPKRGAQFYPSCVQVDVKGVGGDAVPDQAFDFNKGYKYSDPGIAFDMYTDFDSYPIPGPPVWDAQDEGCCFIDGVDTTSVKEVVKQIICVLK
T1 sequence (G3XAP7 whole entry): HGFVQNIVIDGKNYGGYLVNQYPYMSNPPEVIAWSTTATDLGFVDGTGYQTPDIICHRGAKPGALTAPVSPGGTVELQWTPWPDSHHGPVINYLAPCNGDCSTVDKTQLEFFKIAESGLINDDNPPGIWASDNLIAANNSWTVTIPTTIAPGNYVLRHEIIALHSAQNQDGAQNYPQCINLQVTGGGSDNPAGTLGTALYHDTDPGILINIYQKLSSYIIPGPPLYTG

Take `O=C(OO)c1cccc(Cl)c1` [m-CPBA, meta-chloro-perbenzoic acid]: the “stopped-flow UV-vis” value on TaAA9 is “transient intermediates generated upon oxidation of CuI–TaAA9, CvAA9, and LsAA9 with mCPBA”; at CvAA9 it was “transient intermediates generated upon oxidation of CuI–TaAA9, CvAA9, and LsAA9 with mCPBA”; at LsAA9, “transient intermediates generated upon oxidation of CuI–TaAA9, CvAA9, and LsAA9 with mCPBA”.
